Assay results published in patent US9708314B2, “Heterocyclic amide compound” (NISSAN CHEMICAL INDUSTRIES, LTD., priority 2013, dated 2017).

Tests used:
Type in all cases: in vivo
Cyperus difformis = assay: Test Example 3: herbicidal effect by application to foliage (Wagner pot, water depth 0.1-0.5 cm); settings: Nineteenth Table; for E (herbicidal effect grade): application to foliage
Outline: (§1)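 Alluvial soil in 1/10000 are Wagner pots, sown and grown 14 days in a 25–30 °C greenhouse. An emulsifiable concentrate diluted in water to the set dose (g/ha) was sprayed on stems and leaves. Effect scored three weeks later on a 0–5 scale: 5 = ≥90% herbicidal ratio, 0 = ≤5%.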

[1] = test system: Echinochloa crus-galli var. crus-galli; assay: as above; settings: Nineteenth Table; for H (herbicidal effect grade): application to foliage
Outline: as §1

Leptochloa chinensis = assay: as above; settings: Nineteenth Table; for D (herbicidal effect grade): application to foliage
Outline: as §1

[2] = test system: directly sowed Oryza sativa; assay: Test Example 3: effect on crop by application to foliage (Wagner pot, water depth 0.1-0.5 cm); settings: Nineteenth Table; for b (effect on crop grade): application to foliage
Outline: as §1

Abutilon theophrasti = assay: Test Example 4: herbicidal effect by application to foliage (diluvial soil, plastic box); settings: for M (Abutilon theophrasti) herbicidal effect grade: foliage application
Outline: (§2)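 Emulsion-formulated compound, diluted to a predetermined g/ha dose, applied by small sprayer to leaves and stems of 14-day-old seedlings grown in sterilized diluvial soil. Effect rated on 0–5 herbicidal-ratio scale three weeks on.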

Alopecurus myosuroides = assay: as above; settings: for J (Alopecurus myosuroides) herbicidal effect grade: foliage application
Outline: as §2

Amaranthus retroflexus = assay: as above; settings: for N (Amaranthus retroflexus) herbicidal effect grade: foliage application
Outline: as §2

Apera spica-venti. = assay: as above; settings: for L (Apera spica-venti.) herbicidal effect grade: foliage application
Outline: as §2

Avena fatua = assay: as above; settings: for I (Avena fatua) herbicidal effect grade: foliage application
Outline: as §2

Chenopodium album = assay: as above; settings: for O (Chenopodium album) herbicidal effect grade: foliage application
Outline: as §2

Digitaria ciliaris = assay: as above; settings: for F (Digitaria ciliaris) herbicidal effect grade: foliage application
Outline: as §2

[3] = test system: Echinochloa crus-galli var. crus-galli; assay: as above; settings: for H (Echinochloa crus-galli var. crus-galli) herbicidal effect grade: foliage application
Outline: as §2

Galium spurium = assay: as above; settings: for Q (Galium spurium) herbicidal effect grade: foliage application
Outline: as §2

Lolium multiflorum Lam. = assay: as above; settings: for K (Lolium multiflorum Lam.) herbicidal effect grade: foliage application
Outline: as §2

Setaria viridis = assay: as above; settings: for G (Setaria viridis) herbicidal effect grade: foliage application
Outline: as §2

Stellaria media = assay: as above; settings: for P (Stellaria media) herbicidal effect grade: foliage application
Outline: as §2

Veronica persica = assay: as above; settings: for R (Veronica persica) herbicidal effect grade: Application herbicide amount 320 g/ha, foliage application
Outline: as §2

[4] = test system: Beta vulgaris ssp. vulgaris; assay: Test Example 4: effect on crop by application to foliage (diluvial soil, plastic box); settings: for f (Beta vulgaris ssp. vulgaris) effect on crop grade: foliage application
Outline: as §2

Brassica campestris L. = assay: as above; settings: for g (Brassica campestris L.) effect on crop grade: foliage application
Outline: as §2

Glycine max = assay: as above; settings: for d (Glycine max) effect on crop grade: Application herbicide amount 320 g/ha
Outline: as §2

Triticum aestivum = assay: as above; settings: for e (Triticum aestivum) effect on crop grade: foliage application
Outline: as §2

Zea mays = assay: as above; settings: for c (Zea mays) effect on crop grade: Application herbicide amount 320 g/ha
Outline: as §2

[5] = test system: directly sowed Oryza sativa; assay: as above
Outline: as §2

[6] = application herbicide amount 320 g/ha
[7] = application to foliage, application herbicide amount 320 g/ha
[8] = Application herbicide amount 320 g/ha
[9] = application herbicide amount 131 g/ha

Cc1nnc(NC(=O)c2ccc(C(F)(F)F)n3c(COc4ccccc4)nnc23)o1 [1-025]
E (Cyperus difformis) herbicidal ratio grade (Cyperus difformis; [6]): 2 (Herbicidal ratio of 20% or more and less than 40%)
H (Echinochloa crus-galli var. crus-galli) herbicidal ratio grade [1, 6]: 4 (Herbicidal ratio of 70% or more and less than 90%)
D (Leptochloa chinensis) herbicidal ratio grade (Leptochloa chinensis; [6]): 3 (Herbicidal ratio of 40% or more and less than 70%)
b (directly sowed Oryza sativa) effect on crop grade [2, 6]: 2 (Herbicidal ratio of 20% or more and less than 40%)
M (Abutilon theophrasti) herbicidal effect (Abutilon theophrasti; [7]): 5 (Herbicidal ratio of 90% or more (almost completely withered))
J (Alopecurus myosuroides) herbicidal effect (Alopecurus myosuroides; [7]): 0 (Herbicidal ratio of 5% or less (almost no effect))
N (Amaranthus retroflexus) herbicidal effect (Amaranthus retroflexus; [7]): 3 (Herbicidal ratio of 40% or more and less than 70%)
L (Apera spica-venti.) herbicidal effect (Apera spica-venti.; [7]): 0 (Herbicidal ratio of 5% or less (almost no effect))
I (Avena fatua) herbicidal effect (Avena fatua; [7]): 0 (Herbicidal ratio of 5% or less (almost no effect))
O (Chenopodium album) herbicidal effect (Chenopodium album; [7]): 5 (Herbicidal ratio of 90% or more (almost completely withered))
F (Digitaria ciliaris) herbicidal effect (Digitaria ciliaris; [7]): 3 (Herbicidal ratio of 40% or more and less than 70%)
H (Echinochloa crus-galli var. crus-galli) herbicidal effect [3, 7]: 4 (Herbicidal ratio of 70% or more and less than 90%)
Q (Galium spurium) herbicidal effect (Galium spurium; [7]): 3 (Herbicidal ratio of 40% or more and less than 70%)
K (Lolium multiflorum Lam.) herbicidal effect (Lolium multiflorum Lam.; [7]): 0 (Herbicidal ratio of 5% or less (almost no effect))
G (Setaria viridis) herbicidal effect (Setaria viridis; [7]): 2 (Herbicidal ratio of 20% or more and less than 40%)
P (Stellaria media) herbicidal effect (Stellaria media; [7]): 4 (Herbicidal ratio of 70% or more and less than 90%)
R (Veronica persica) herbicidal effect (Veronica persica; [7]): 3 (Herbicidal ratio of 40% or more and less than 70%)
f (Beta vulgaris ssp. vulgaris) effect on crop [4, 7]: 5 (Herbicidal ratio of 90% or more (almost completely withered))
g (Brassica campestris L.) effect on crop (Brassica campestris L.; [7]): 2 (Herbicidal ratio of 20% or more and less than 40%)
c (Glycine max) effect on crop (Glycine max; [7]): 0 (Herbicidal ratio of 5% or less (almost no effect))
e (Triticum aestivum) effect on crop (Triticum aestivum; [7]): 0 (Herbicidal ratio of 5% or less (almost no effect))
b (Zea mays) effect on crop (Zea mays; [7]): 0 (Herbicidal ratio of 5% or less (almost no effect))
d (directly sowed Oryza sativa) effect on crop [5, 7]: 3 (Herbicidal ratio of 40% or more and less than 70%)

CSCc1nnc(NC(=O)c2ccc(C(F)(F)F)n3c(C(C)C)nnc23)o1 [1-141]
E (herbicidal effect grade) (Cyperus difformis; [6]): 3 (Herbicidal ratio of 40% or more and less than 70%)
H (herbicidal effect grade) [1, 6]: 4 (Herbicidal ratio of 70% or more and less than 90%)
D (herbicidal effect grade) (Leptochloa chinensis; [6]): 2 (Herbicidal ratio of 20% or more and less than 40%)
b (effect on crop grade) [2, 6]: 1 (Herbicidal ratio of 5% or more and less than 20%)
M (Abutilon theophrasti) herbicidal effect grade (Abutilon theophrasti; [8]): 3 (Herbicidal ratio of 40% or more and less than 70%)
J (Alopecurus myosuroides) herbicidal effect grade (Alopecurus myosuroides; [8]): 0 (Herbicidal ratio of 5% or less (almost no effect))
N (Amaranthus retroflexus) herbicidal effect grade (Amaranthus retroflexus; [8]): 3 (Herbicidal ratio of 40% or more and less than 70%)
L (Apera spica-venti.) herbicidal effect grade (Apera spica-venti.; [8]): 0 (Herbicidal ratio of 5% or less (almost no effect))
I (Avena fatua) herbicidal effect grade (Avena fatua; [8]): 0 (Herbicidal ratio of 5% or less (almost no effect))
O (Chenopodium album) herbicidal effect grade (Chenopodium album; [8]): 4 (Herbicidal ratio of 70% or more and less than 90%)
F (Digitaria ciliaris) herbicidal effect grade (Digitaria ciliaris; [8]): 3 (Herbicidal ratio of 40% or more and less than 70%)
H (Echinochloa crus-galli var. crus-galli) herbicidal effect grade [3, 8]: 4 (Herbicidal ratio of 70% or more and less than 90%)
Q (Galium spurium) herbicidal effect grade (Galium spurium; [8]): 1 (Herbicidal ratio of 5% or more and less than 20%)
K (Lolium multiflorum Lam.) herbicidal effect grade (Lolium multiflorum Lam.; [8]): 0 (Herbicidal ratio of 5% or less (almost no effect))
G (Setaria viridis) herbicidal effect grade (Setaria viridis; [8]): 1 (Herbicidal ratio of 5% or more and less than 20%)
P (Stellaria media) herbicidal effect grade (Stellaria media; [8]): 3 (Herbicidal ratio of 40% or more and less than 70%)
R (Veronica persica) herbicidal effect grade (Veronica persica): 3 (Herbicidal ratio of 40% or more and less than 70%)
f (Beta vulgaris ssp. vulgaris) effect on crop grade [4, 8]: 4 (Herbicidal ratio of 70% or more and less than 90%)
g (Brassica campestris L.) effect on crop grade (Brassica campestris L.; [8]): 4 (Herbicidal ratio of 70% or more and less than 90%)
d (Glycine max) effect on crop grade (Glycine max; foliage application): 1 (Herbicidal ratio of 5% or more and less than 20%)
e (Triticum aestivum) effect on crop grade (Triticum aestivum; [8]): 0 (Herbicidal ratio of 5% or less (almost no effect))
c (Zea mays) effect on crop grade (Zea mays; foliage application): 0 (Herbicidal ratio of 5% or less (almost no effect))

CC(C)c1nnc2c(C(=O)Nc3nnc(CS(C)(=O)=O)o3)ccc(C(F)(F)F)n12 [1-142]
E (herbicidal effect grade) (Cyperus difformis; [6]): 0 (Herbicidal ratio of 5% or less (almost no effect))
H (herbicidal effect grade) [1, 6]: 3 (Herbicidal ratio of 40% or more and less than 70%)
D (herbicidal effect grade) (Leptochloa chinensis; [6]): 1 (Herbicidal ratio of 5% or more and less than 20%)
b (effect on crop grade) [2, 6]: 0 (Herbicidal ratio of 5% or less (almost no effect))
M (Abutilon theophrasti) herbicidal effect grade (Abutilon theophrasti; [8]): 0 (Herbicidal ratio of 5% or less (almost no effect))
J (Alopecurus myosuroides) herbicidal effect grade (Alopecurus myosuroides; [8]): 0 (Herbicidal ratio of 5% or less (almost no effect))
N (Amaranthus retroflexus) herbicidal effect grade (Amaranthus retroflexus; [8]): 1 (Herbicidal ratio of 5% or more and less than 20%)
L (Apera spica-venti.) herbicidal effect grade (Apera spica-venti.; [8]): 0 (Herbicidal ratio of 5% or less (almost no effect))
I (Avena fatua) herbicidal effect grade (Avena fatua; [8]): 0 (Herbicidal ratio of 5% or less (almost no effect))
O (Chenopodium album) herbicidal effect grade (Chenopodium album; [8]): 4 (Herbicidal ratio of 70% or more and less than 90%)
F (Digitaria ciliaris) herbicidal effect grade (Digitaria ciliaris; [8]): 1 (Herbicidal ratio of 5% or more and less than 20%)
H (Echinochloa crus-galli var. crus-galli) herbicidal effect grade [3, 8]: 3 (Herbicidal ratio of 40% or more and less than 70%)
Q (Galium spurium) herbicidal effect grade (Galium spurium; [8]): 1 (Herbicidal ratio of 5% or more and less than 20%)
K (Lolium multiflorum Lam.) herbicidal effect grade (Lolium multiflorum Lam.; [8]): 0 (Herbicidal ratio of 5% or less (almost no effect))
G (Setaria viridis) herbicidal effect grade (Setaria viridis; [8]): 0 (Herbicidal ratio of 5% or less (almost no effect))
P (Stellaria media) herbicidal effect grade (Stellaria media; [8]): 2 (Herbicidal ratio of 20% or more and less than 40%)
R (Veronica persica) herbicidal effect grade (Veronica persica): 0 (Herbicidal ratio of 5% or less (almost no effect))
f (Beta vulgaris ssp. vulgaris) effect on crop grade [4, 8]: 3 (Herbicidal ratio of 40% or more and less than 70%)
g (Brassica campestris L.) effect on crop grade (Brassica campestris L.; [8]): 0 (Herbicidal ratio of 5% or less (almost no effect))
d (Glycine max) effect on crop grade (Glycine max; foliage application): 0 (Herbicidal ratio of 5% or less (almost no effect))
e (Triticum aestivum) effect on crop grade (Triticum aestivum; [8]): 0 (Herbicidal ratio of 5% or less (almost no effect))
c (Zea mays) effect on crop grade (Zea mays; foliage application): 0 (Herbicidal ratio of 5% or less (almost no effect))

CC(C)c1nnc2c(C(=O)Nc3nnnn3C)ccc(-c3ccccc3)n12 [2-055]
E (herbicidal effect grade) (Cyperus difformis; [9]): 0 (Herbicidal ratio of 5% or less (almost no effect))
H (herbicidal effect grade) [1, 9]: 2 (Herbicidal ratio of 20% or more and less than 40%)
D (herbicidal effect grade) (Leptochloa chinensis; [9]): 0 (Herbicidal ratio of 5% or less (almost no effect))
b (effect on crop grade) [2, 9]: 0 (Herbicidal ratio of 5% or less (almost no effect))
M (Abutilon theophrasti) herbicidal effect grade (Abutilon theophrasti; 131 g/ha): 4 (Herbicidal ratio of 70% or more and less than 90%)
J (Alopecurus myosuroides) herbicidal effect grade (Alopecurus myosuroides; 131 g/ha): 0 (Herbicidal ratio of 5% or less (almost no effect))
N (Amaranthus retroflexus) herbicidal effect grade (Amaranthus retroflexus; 131 g/ha): 3 (Herbicidal ratio of 40% or more and less than 70%)
L (Apera spica-venti.) herbicidal effect grade (Apera spica-venti.; 131 g/ha): 0 (Herbicidal ratio of 5% or less (almost no effect))
I (Avena fatua) herbicidal effect grade (Avena fatua; 131 g/ha): 0 (Herbicidal ratio of 5% or less (almost no effect))
O (Chenopodium album) herbicidal effect grade (Chenopodium album; 131 g/ha): 5 (Herbicidal ratio of 90% or more (almost completely withered))
F (Digitaria ciliaris) herbicidal effect grade (Digitaria ciliaris; 131 g/ha): 0 (Herbicidal ratio of 5% or less (almost no effect))
H (Echinochloa crus-galli var. crus-galli) herbicidal effect grade ([3]; 131 g/ha): 0 (Herbicidal ratio of 5% or less (almost no effect))
Q (Galium spurium) herbicidal effect grade (Galium spurium; 131 g/ha): 0 (Herbicidal ratio of 5% or less (almost no effect))
K (Lolium multiflorum Lam.) herbicidal effect grade (Lolium multiflorum Lam.; 131 g/ha): 0 (Herbicidal ratio of 5% or less (almost no effect))
G (Setaria viridis) herbicidal effect grade (Setaria viridis; 131 g/ha): 0 (Herbicidal ratio of 5% or less (almost no effect))
P (Stellaria media) herbicidal effect grade (Stellaria media; 131 g/ha): 4 (Herbicidal ratio of 70% or more and less than 90%)
f (Beta vulgaris ssp. vulgaris) effect on crop grade ([4]; 131 g/ha): 1 (Herbicidal ratio of 5% or more and less than 20%)
g (Brassica campestris L.) effect on crop grade (Brassica campestris L.; 131 g/ha): 0 (Herbicidal ratio of 5% or less (almost no effect))
c (Glycine max) effect on crop grade (Glycine max; foliage application, 131 g/ha): 0 (Herbicidal ratio of 5% or less (almost no effect))
e (Triticum aestivum) effect on crop grade (Triticum aestivum; 131 g/ha): 0 (Herbicidal ratio of 5% or less (almost no effect))
b (Zea mays) effect on crop grade (Zea mays; foliage application, 131 g/ha): 0 (Herbicidal ratio of 5% or less (almost no effect))
d (directly sowed Oryza sativa) effect on crop grade ([5]; foliage application, 131 g/ha): 1 (Herbicidal ratio of 5% or more and less than 20%)
